Experimental data reported in patent publication US9695155B2, “Herbicidal substituted pyrimidinyloxy benzene compounds” (E. I. DU PONT DE NEMOURS AND COMPANY, priority 2013, dated 2017).

Legend:
galium = test: Test C postemergence; format: in vivo, Galium aparine; conditions: for Galium plant response rating / Plant response rating, Galium: scale 0 to 100 (0 no effect, 100 complete control)
Summary of the method: (§1)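 Rated visually on 0–100 (100 = complete control) after 13–15 days under glass. Treatments went onto freshly seeded loam/sand soil or onto emerged plants at the 1- to 4-leaf stage, using a surfactant-containing solvent formulation.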

johnsongrass = test: Test C postemergence; format: in vivo, Sorghum halepense; conditions: for Johnsongrass plant response rating / Plant response rating, Johnsongrass: scale 0 to 100 (0 no effect, 100 complete control)
Summary of the method: as §1

corn = test: Test A postemergence; format: in vivo, Zea mays; conditions: 0 to 100 scale where 0 is no effect and 100 is complete control
Summary of the method: (§2)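 Greenhouse pot test, loam/sand soil. Formulation: non-phytotoxic solvent mix plus surfactant. Pre: directed spray onto soil after sowing. Post: plants at 1–2 leaf, 2–10 cm. Rated visually vs untreated controls at ~10 d, 0 (no effect) to 100 (complete control).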

wheat, winter = test: Test C postemergence; format: in vivo, Triticum aestivum
Summary of the method: as §1

oilseed rape = test: Test C postemergence; format: in vivo, Brassica napus
Summary of the method: as §1

giant foxtail = test: Test A preemergence; format: in vivo, Setaria faberii; conditions: for Foxtail, Giant plant response rating: 500 g ai/ha
Summary of the method: as §2

velvetleaf [1] = test: Test C postemergence; format: in vivo, Abutilon theophrasti
Summary of the method: as §1

morningglory [2] = test: Test A preemergence; format: in vivo, Ipomoea spp.; conditions: for Morningglory plant response rating: 500 g ai/ha
Summary of the method: as §2

pigweed = test: Test C postemergence; format: in vivo, Amaranthus retroflexus
Summary of the method: as §1

ragweed = test: Test C postemergence; format: in vivo, Ambrosia elatior
Summary of the method: as §1

blackgrass = test: Test C postemergence; format: in vivo, Alopecurus myosuroides; conditions: for Blackgrass plant response rating / Plant response rating, Blackgrass: scale 0 to 100 (0 no effect, 100 complete control)
Summary of the method: as §1

velvetleaf [3] = test: Test A postemergence; format: in vivo, Abutilon theophrasti; conditions: 0 to 100 scale where 0 is no effect and 100 is complete control; for Plant response rating, Velvetleaf: 500 g ai/ha
Summary of the method: as §2

soybean = test: Test C postemergence; format: in vivo, Glycine max
Summary of the method: as §1

kochia = test: Test C postemergence; format: in vivo, Kochia scoparia; conditions: for Kochia plant response rating / Plant response rating, Kochia: scale 0 to 100 (0 no effect, 100 complete control)
Summary of the method: as §1

wheat = test: Test A preemergence; format: in vivo, Triticum aestivum
Summary of the method: as §2

velvetleaf [4] = test: Test A preemergence; format: in vivo, Abutilon theophrasti
Summary of the method: as §2

morningglory [5] = test: Test A postemergence; format: in vivo, Ipomoea spp.; conditions: 0 to 100 scale where 0 is no effect and 100 is complete control; for Plant response rating, Morningglory: 500 g ai/ha
Summary of the method: as §2

waterhemp = test: Test C postemergence; format: in vivo, Amaranthus rudis
Summary of the method: as §1

[6] = 16 g ai/ha, postemergence, 0 is no effect, 100 is complete control
[7] = 31 g ai/ha, postemergence, visual rating, 13 to 15 days
[8] = 125 g ai/ha, postemergence, visual rating
[9] = Postemergence, 62 g ai/ha, 13 to 15 days
[10] = 31 g ai/ha, postemergence, visual rating, scale 0 to 100 (0 no effect, 100 complete control), 13 to 15 days
[11] = 125 g ai/ha, postemergence, visual rating, scale 0 to 100 (0 no effect, 100 complete control)
[12] = Postemergence, 62 g ai/ha, scale 0 to 100 (0 no effect, 100 complete control), 13 to 15 days
[13] = 0 to 100 scale where 0 is no effect and 100 is complete control
[14] = 500 g ai/ha, 0 to 100 scale where 0 is no effect and 100 is complete control
[15] = 16 g ai/ha, postemergence, visual rating, 13 to 15 days
[16] = Postemergence, 31 g ai/ha, 13 to 15 days
[17] = Postemergence, 31 g ai/ha, scale 0 to 100 (0 no effect, 100 complete control), 13 to 15 days
[18] = Postemergence, 62 g ai/ha, scale 0 to 100 (0 no effect, 100 complete control)
[19] = 125 g ai/ha, 0 to 100 scale where 0 is no effect and 100 is complete control
[20] = 0 to 100 scale, 0 no effect, 100 complete control, approx. 10 days

**Q.** What does the source list for `Clc1cnc(Oc2cccc(Cl)c2-n2cc(Cl)cn2)nc1` [Compound 220]?
**A.** Plant response rating (0 to 100), Galium (galium; [6]): 50; Galium plant response rating (galium; [7]): 70; Plant response rating, Galium (galium; [8]): 95; Plant response rating, Galium (galium; [9]): 80; Plant response rating (0 to 100), Johnsongrass (johnsongrass; [6]): 5; Johnsongrass plant response rating (johnsongrass; [7]): 0; Plant response rating, Johnsongrass (johnsongrass; [8]): 5; Plant response rating, Johnsongrass (johnsongrass; [9]): 5; Corn plant response rating (corn; 125 g ai/ha): 40; Plant response rating, Corn (corn; 500 g ai/ha): 70; Plant response rating (0 to 100), Wheat (wheat, winter; [6]): 0; Wheat plant response rating (wheat, winter; [10]): 0; Plant response rating, Wheat (wheat, winter; [11]): 0; Plant response rating, Wheat (wheat, winter; [12]): 0; Plant response rating (0 to 100), Oilseed Rape (oilseed rape; [6]): 50; Oilseed Rape plant response rating (oilseed rape; [10]): 65; Plant response rating, Oilseed Rape (oilseed rape; [11]): 90; Plant response rating, Oilseed Rape (oilseed rape; [12]): 85; Foxtail, Giant plant response rating (0 to 100 scale) (giant foxtail; 125 g ai/ha): 100; Foxtail, Giant plant response rating (giant foxtail; [13]): 100; Plant response rating (0 to 100), Velvetleaf (velvetleaf [1]; [6]): 30; Velvetleaf plant response rating (velvetleaf [1]; [10]): 50; Plant response rating, Velvetleaf (velvetleaf [1]; [11]): 60; Plant response rating, Velvetleaf (velvetleaf [1]; [12]): 65; Morningglory plant response rating (0 to 100 scale) (morningglory [2]; 125 g ai/ha): 0; Morningglory plant response rating (morningglory [2]; [13]): 40; Plant response rating (0 to 100), Pigweed (pigweed; [6]): 65; Pigweed plant response rating (pigweed; [10]): 75; Plant response rating, Pigweed (pigweed; [11]): 90; Plant response rating, Pigweed (pigweed; [12]): 85; Plant response rating (0 to 100), Ragweed (ragweed; [6]): 10; Ragweed plant response rating (ragweed; [10]): 10; Plant response rating, Ragweed (ragweed; [11]): 25; Plant response rating, Ragweed (ragweed; [12]): 15; Plant response rating (0 to 100), Blackgrass (blackgrass; [6]): 0; Blackgrass plant response rating (blackgrass; [7]): 60; Plant response rating, Blackgrass (blackgrass; [8]): 50; Plant response rating, Blackgrass (blackgrass; [9]): 40; Velvetleaf plant response rating (velvetleaf [3]; 125 g ai/ha): 100; Plant response rating, Velvetleaf (velvetleaf [3]): 100; Plant response rating (0 to 100), Soybean (soybean; [6]): 40; Soybean plant response rating (soybean; [10]): 65; Plant response rating, Soybean (soybean; [11]): 95; Plant response rating, Soybean (soybean; [12]): 60; Plant response rating (0 to 100), Kochia (kochia; [6]): 90; Kochia plant response rating (kochia; [7]): 90; Plant response rating, Kochia (kochia; [8]): 95; Plant response rating, Kochia (kochia; [9]): 95; Wheat plant response rating (0 to 100 scale) (wheat; 125 g ai/ha): 0; Wheat plant response rating (wheat; [14]): 20; Velvetleaf plant response rating (0 to 100 scale) (velvetleaf [4]; 125 g ai/ha): 20; Velvetleaf plant response rating (velvetleaf [4]; [14]): 70; Morningglory plant response rating (morningglory [5]; 125 g ai/ha): 50; Plant response rating, Morningglory (morningglory [5]): 100; Plant response rating (0 to 100), Waterhemp (waterhemp; [6]): 65; Waterhemp plant response rating (waterhemp; [10]): 70; Plant response rating, Waterhemp (waterhemp; [11]): 85; Plant response rating, Waterhemp (waterhemp; [12]): 75

**Q.** For `FC(F)Oc1cnn(-c2ccccc2Oc2ncc(Cl)cn2)c1` [Compound 98], which “Galium plant response rating” value (galium; [15]) is on record?
**A.** 50

**Q.** What about the “Plant response rating (0 to 100), Galium” value (galium; 125 g ai/ha, postemergence) of the same molecule?
**A.** 80

**Q.** And the “Plant response rating, Galium” value (galium; [16])?
**A.** 60

**Q.** What about the “Plant response rating, Galium” value (galium; Postemergence, 62 g ai/ha) of the same molecule?
**A.** 75

**Q.** And the “Johnsongrass plant response rating” value (johnsongrass; [15])?
**A.** 0

**Q.** And the “Plant response rating (0 to 100), Johnsongrass” value (johnsongrass; 125 g ai/ha, postemergence)?
**A.** 10

**Q.** And the “Plant response rating, Johnsongrass” value (johnsongrass; [16])?
**A.** 0

**Q.** And the “Plant response rating, Johnsongrass” value (johnsongrass; Postemergence, 62 g ai/ha)?
**A.** 5

**Q.** What about the “Plant response rating, Corn” value (corn; 125 g ai/ha) of the same molecule?
**A.** 40

**Q.** And the “Plant response rating, Corn” value (corn; 500 g ai/ha)?
**A.** 70

**Q.** And the “Plant response rating (0 to 100), Wheat” value (wheat, winter; 125 g ai/ha, postemergence)?
**A.** 10

**Q.** What about the “Plant response rating, Wheat” value (wheat, winter; [17]) of the same molecule?
**A.** 0

**Q.** And the “Plant response rating, Wheat” value (wheat, winter; [18])?
**A.** 5

**Q.** What about the “Plant response rating (0 to 100), Oilseed Rape” value (oilseed rape; 125 g ai/ha, postemergence) of the same molecule?
**A.** 98

**Q.** What about the “Plant response rating, Oilseed Rape” value (oilseed rape; [17]) of the same molecule?
**A.** 80

**Q.** What about the “Plant response rating, Oilseed Rape” value (oilseed rape; [18]) of the same molecule?
**A.** 95

**Q.** What about the “Plant response rating, Foxtail, Giant” value (giant foxtail; [19]) of the same molecule?
**A.** 100

**Q.** And the “Foxtail, Giant plant response rating” value (giant foxtail; [20])?
**A.** 100

**Q.** What about the “Plant response rating (0 to 100), Velvetleaf” value (velvetleaf [1]; 125 g ai/ha, postemergence) of the same molecule?
**A.** 90

**Q.** What about the “Plant response rating, Velvetleaf” value (velvetleaf [1]; [17]) of the same molecule?
**A.** 50

**Q.** And the “Plant response rating, Velvetleaf” value (velvetleaf [1]; [18])?
**A.** 70

**Q.** And the “Plant response rating, Morningglory” value (morningglory [2]; [19])?
**A.** 60

**Q.** And the “Morningglory plant response rating” value (morningglory [2]; [20])?
**A.** 80

**Q.** And the “Plant response rating (0 to 100), Pigweed” value (pigweed; 125 g ai/ha, postemergence)?
**A.** 75

**Q.** What about the “Plant response rating, Pigweed” value (pigweed; [17]) of the same molecule?
**A.** 75

**Q.** And the “Plant response rating, Pigweed” value (pigweed; [18])?
**A.** 75

**Q.** What about the “Plant response rating (0 to 100), Ragweed” value (ragweed; 125 g ai/ha, postemergence) of the same molecule?
**A.** 40

**Q.** What about the “Plant response rating, Ragweed” value (ragweed; [17]) of the same molecule?
**A.** 10

**Q.** What about the “Plant response rating, Ragweed” value (ragweed; [18]) of the same molecule?
**A.** 30

**Q.** And the “Blackgrass plant response rating” value (blackgrass; [15])?
**A.** 0

**Q.** And the “Plant response rating (0 to 100), Blackgrass” value (blackgrass; 125 g ai/ha, postemergence)?
**A.** 20

**Q.** What about the “Plant response rating, Blackgrass” value (blackgrass; [16]) of the same molecule?
**A.** 5

**Q.** And the “Plant response rating, Blackgrass” value (blackgrass; Postemergence, 62 g ai/ha)?
**A.** 30

**Q.** And the “Plant response rating, Velvetleaf” value (velvetleaf [3])?
**A.** 100

**Q.** And the “Plant response rating (0 to 100), Soybean” value (soybean; 125 g ai/ha, postemergence)?
**A.** 90

**Q.** What about the “Plant response rating, Soybean” value (soybean; [17]) of the same molecule?
**A.** 40

**Q.** What about the “Plant response rating, Soybean” value (soybean; [18]) of the same molecule?
**A.** 60

**Q.** And the “Kochia plant response rating” value (kochia; [15])?
**A.** 70

**Q.** What about the “Plant response rating (0 to 100), Kochia” value (kochia; 125 g ai/ha, postemergence) of the same molecule?
**A.** 98

**Q.** What about the “Plant response rating, Kochia” value (kochia; [16]) of the same molecule?
**A.** 80

**Q.** And the “Plant response rating, Kochia” value (kochia; Postemergence, 62 g ai/ha)?
**A.** 90

**Q.** And the “Plant response rating, Wheat” value (wheat; [19])?
**A.** 0

**Q.** What about the “Plant response rating, Velvetleaf” value (velvetleaf [4]; [19]) of the same molecule?
**A.** 90

**Q.** And the “Plant response rating, Morningglory” value (morningglory [5])?
**A.** 100

**Q.** What about the “Plant response rating (0 to 100), Waterhemp” value (waterhemp; 125 g ai/ha, postemergence) of the same molecule?
**A.** 85

**Q.** And the “Plant response rating, Waterhemp” value (waterhemp; [17])?
**A.** 50

**Q.** And the “Plant response rating, Waterhemp” value (waterhemp; [18])?
**A.** 80
